Assay results reported in PMC6804243, “Small-Molecule Inhibition of UBE2T/FANCL-Mediated Ubiquitylation in the Fanconi Anemia Pathway” (ACS Chemical Biology, 2019).
Entries after “also recorded” stand apart in the source; their conditions may differ.

Columns and labels:
UBE2T / GST-FANCLRING = tested on: T1, UBE2T / GST-FANCLRING; experiment: Gel-based ubiquitylation assay, E2 = UBE2T, E3 = GST-FANCLRING; assay type: biochemical; details: compound 100 μM, 30 min at 37 °C, Western blot
T1 construct: the RING domain (residues 275–375) of the E3 FANCL (FANCLRING); His6 (N); made in house; host or cells: E. coli Rosetta (DE3)

UBE2D1 / GST-FANCLRING = tested on: T2, UBE2D1 / GST-FANCLRING; experiment: Gel-based ubiquitylation assay, E2 = UBE2D1, E3 = GST-FANCLRING; assay type: biochemical; details: 30 min at 37 °C, Western blot
T2 construct: the RING domain (residues 275–375) of the E3 FANCL (FANCLRING); His6 (N); made in house; host or cells: E. coli Rosetta (DE3)
Description: (§1) Figure 2 Gel-based ubiquitylation assays with confirmed HTRF hits. […] Western blots (WB) probed for GST or biotin as labeled. Reactions contained 20 nM His6-UBE1, 50 nM E2, 250 nM GST-E3, 500 nM biotinylated ubiquitin: (a) E2 = UBE2T, E3 = GST-FANCLRING, 30 min of reaction at 37 °C; (b) E2 = UBE2D1, E3 = GST-FANCLRING, 30 min of reaction at 37 °C; and (c) E2 = UBE2D1, E3 = GST-RNF8, 10 min of reaction at 37 °C.
In order to explore the selectivity of CU1, CU2, CU9, CU10, and CU12, we conducted a counter-screen against other E2 and E3 combinations. Since members of the UBE2D family of E2s are known to ubiquitylate multiple substrates in vitro,[13] a ubiquitylation assay featuring UBE2D1 and GST-FANCLRING was performed. With UBE2D1, multiple ubiquitylated GST-FANCLRING species could be observed (Figure 2b).
(§2) Purified protein was concentrated using a Vivaspin-6 concentrator with a 10 kDa MW cut-off (Vivascience) and flash-frozen in small aliquots for storage at […]
(§3) Cy5 labelling of ubiquitin. To a 5 mg/mL solution of recombinant human ubiquitin (Boston Biochem) in 0.1 M NaHCO3 pH 8.3, was added a 4-fold molar excess of Cyanine5 NHS ester (Lumiprobe). The reaction was incubated at 23 °C for 4 hours in the dark. The protein was separated from unreacted dye by passage through a PD-10 desalting column (GE Healthcare) equilibrated with PBS. Purified protein was concentrated using a Vivaspin-6 concentrator with a 3 kDa MW cut-off (Vivascience) and flash-frozen in small aliquots for storage […]
(§4) Homogeneous Time-Resolved Fluorescence (HTRF) Assay. GST-FANCLRING (200 nM) was incubated with anti-GST Tb (CisBio, #61GSTTL) (2.5 ng final) at room temperature for 30 minutes in assay buffer (50 mM Tris-HCl pH 8.0, 1 mM TCEP, 5 mM MgCl2, 0.005% Tween-20). Meanwhile, 10 μL of UBE2T in assay buffer (or assay buffer alone for no enzyme controls) was incubated in a white 384-well plate (Corning) with 20 nL DMSO or compound in DMSO. After 30 minutes, the GST-RINGRING solution was added to an equal volume solution containing His-UBE1 (Boston Biochem) (16 nM), Cy5-ubiquitin (400 nM), ATP (0.8 mM) in assay buffer. 10 μL of this solution was immediately added to each well of the 384 -well plate containing UBE2T or buffer. F inal concentrations: His -UBE1 (4 nM), UBE2T (6 nM), GST -RINGRING (50 nM), Cy5-ubiquitin (100 nM), ATP (0.2 mM), compound (10 or 20 μM) in 0.1 %
(§5) (v/v) DMSO. After a 10 minute incubation at 23 °C, 5 µL of a 50 mM EDTA solution were added to each well to stop the reaction. Signal was measured at λEx 340 nm and λEm 665 nm and 620 nm using a PHERAstar FS plate reader
(§6) (BMG Labtech). A ratio was calculated as [λEm(665)/λEm(620)] × 104 for each well and this was used to determine the percent inhibition for test compounds.
(§7) Gel-based ubiquitylation assays. Assays were carried out in a total volume of 10 µL containing 20 nM His6-UBE1 (Boston Biochem), 50 nM UBE2T, 250 nM GST-E3 and 500 nM biotinylated ubiquitin (Boston Biochem) in buffer (50 […]
(§8) Reaction mixtures were incubated for the indicated time at 37 °C and stopped by the addition of 2X reducing SDS -PAGE sample buffer, separated on NuPAGE Novex 4 –12% Bis/Tris gradient gels (Invitrogen) and visualized by Western blotting using the indicated antibodies (Table S3).
Cell culture. […]

UBE2D1 / GST-RNF8 = tested on: T3, UBE2D1 / GST-RNF8; experiment: Gel-based ubiquitylation assay, E2 = UBE2D1, E3 = GST-RNF8; assay type: biochemical; details: 10 min at 37 °C, Western blot
T3 construct: His6 (N); made in house; host or cells: E. coli Rosetta (DE3)
Description: as §1
A further ubiquitylation assay was performed with an alternative E3, RNF8, which also plays important roles in the DDR.[14] In contrast to GST-FANCLRING, long polyubiquitin chains were attached to GST-RNF8 by UBE2D1 (Figure 2c).
as §2, §3, §4, §5, §6, §7, §8
Cell culture. U2OS cells were cultured at 37 °C in a humidified atmosphere and 5% (v/v) CO2 in Dulbecco's Modified Eagle Medium (DMEM; Sigma-Aldrich) supplemented with 10% (v/v) fetal bovine serum (FBS), 100 units/ml of penicillin, […] of streptomycin and 292 μg/mL L-glutamine.
Cell extract preparation and immunoblotting. U2OS cells were lysed in buffer containing 50 mM Tris-HCl pH 7.5, 2% SDS, 10 mM NEM, cocktail protease inhibitor (Roche) and phosphatase inhibitor cocktail followed by sonication 100 µg of extracts were boiled for 5 mins at 95 °C in 5X loading buffer and loaded onto NuPAGE Novex 4–12% Bis/Tris gradient gels
(Invitrogen), or NuPAGE Novex 3-8% Tris/Acetate gradient gels (Invitrogen) for detection of mUb-FANCD2. After separation the gels were transferred to PVDF and the membranes were blocked with Tris-buffered saline containing 0.1% (v/v) Tween-20 (TBST) and 5% (v/v) bovine serum albumin (BSA) and […]

U2OS cells = experiment: Tolerance / cytotoxicity of compounds in U2OS cells; assay type: cell-based; details: compound at 500 μM, 8 h assay
Description: U2OS cells were treated with HU and the formation of mUb-FANCD2 in the presence of CU 1, CU2, and CU9 was evaluated relative to a DMSO control. Following a 1-h preincubation with the compounds, cells were treated with 2.5 mM of HU for 24 h. […] Accordingly, cells were treated with a higher concentration of compounds in further experiments.

Structure (SMILES) | ubiquitylation of GST-FANCLRING (mUb-GST-FANCLRING band) (UBE2T / GST-FANCLRING) | ubiquitylation of GST-FANCLRING (UBE2D1 / GST-FANCLRING) | ubiquitylation of GST-RNF8 and UBE2D1 (UBE2D1 / GST-RNF8) | ubiquitylation of GST-FANCLRING (mUb-GST-FANCLRING band) (UBE2T / GST-FANCLRING; listed as CU 1) | ubiquitylation of GST-RNF8 and UBE2D1 (UBE2D1 / GST-RNF8; listed as CU 1) | tolerance by cells (U2OS cells)
NC(=O)[C@@H]1CCCN1C(=O)c1cc(-n2cccc2)ccc1Cl [CU12] | no ubiquitylation of FANCLRING was observed | essentially abolished the ubiquitylation of GST-FANCLRING | appeared to inhibit the ubiquitylation of all species in the assay |  |  | 
NCCN1C(=O)CC[C@H]2CN(Cc3cccc(-c4ccco4)c3)CC[C@H]21 [CU1] | no ubiquitylation of FANCLRING was observed; also recorded: inhibit the ubiquitylation of GST-FANCLRING | essentially abolished the ubiquitylation of GST-FANCLRING | but not GST-RNF8 | completely inhibited the ubiquitylation of GST-FANCLRING | no detectable effects on ubiquitylation of GST-RNF8 and UBE2D1 | 
CCN1CCN(c2cc(C)nc3nc(CN4CCCCC4C)nn23)CC1 (stereo not shown) [CU2] | no ubiquitylation of FANCLRING was observed; also recorded: inhibit the ubiquitylation of GST-FANCLRING; also recorded: completely inhibited the ubiquitylation of GST-FANCLRING | essentially abolished the ubiquitylation of GST-FANCLRING | but not GST-RNF8; also recorded: no detectable effects on ubiquitylation of GST-RNF8 and UBE2D1 |  |  | tolerated
Cc1nnc(N(C)CC2CCN(CC(C)O)CC2)c(C#N)c1C (stereo not shown) [CU9] | no ubiquitylation of FANCLRING was observed; also recorded: inhibit the ubiquitylation of GST-FANCLRING; also recorded: completely inhibited the ubiquitylation of GST-FANCLRING | essentially abolished the ubiquitylation of GST-FANCLRING | but not GST-RNF8; also recorded: no detectable effects on ubiquitylation of GST-RNF8 and UBE2D1 |  |  | tolerated
